Data from patent EP4729537A1, “B-LACTAMASE-INHIBITING ANTIBODY AND USE THEREOF IN THE TREATMENT AND/OR PREVENTION OF INFECTIONS CAUSED BY B-LACTAMASE-PRODUCING BACTERIA” (priority 2023, dated 2024).
Where two headings read alike, the source gives them in different places.

Biological target: KPC-2 (UNIPROT Q9F663) from Klebsiella pneumoniae, SEQ ID NO. 32 (Klebsiella pneumoniae, UniProt Q9F663)
Details: E. coli cells
Experimental: An in vivo assay was conducted to test the inhibitory capacity of four β-lactamases from three resistant microorganisms: BlaMab from Mycobacterium abscessus, KPC-2 (UNIPROT Q9F663) and OXA-48 (UNIPROT Q6XEC0) from Klebsiella pneumoniae, and VIM-2 (UNIPROT B8QIQ9) from Pseudomonas aeruginosa. The assay utilized BL21(DE3) strain cells of Escherichia coli transformed with the expression vector pET26b(+) along with the gene sequence of each β-lactamase. Cells successfully transformed with the vector and insert were selected using a Kanamycin resistance gene (KanR) present in the vector. The presence and orientation of the insert were confirmed using PCR and sequencing. Additionally, the pET26b(+) vector has an IPTG-inducible promoter to activate the translation of the corresponding β-lactamase. The plasmid also includes a pelB export signal directing the β-lactamase to the periplasmic space of the bacteria for the inhibition assay with Ndis (nanobodies, single-domain antibodies).
To obtain Table 4 with the enzymatic constants (Km, Vmax, Kmi, and Ki) of BlaMab-2, KPC-2, VIM-2, and OXA-48 with B2 and B5, a quantitative assay was performed using a cephalosporin analog: nitrocefin. This compound changes color from yellow to red when hydrolyzed by β-lactamase, which can be quantified by measuring absorbance at 490nm. This method was used to study the membrane permeability of the antibodies in the bacteria as well as the inhibitory effect of B2 and B5 on the activity of BlaMab, KPC-2, OXA48, and VIM-2.

Sequence of KPC-2 (UNIPROT Q9F663) from Klebsiella pneumoniae, SEQ ID NO. 32 (Q9F663 25-293 limits assumed): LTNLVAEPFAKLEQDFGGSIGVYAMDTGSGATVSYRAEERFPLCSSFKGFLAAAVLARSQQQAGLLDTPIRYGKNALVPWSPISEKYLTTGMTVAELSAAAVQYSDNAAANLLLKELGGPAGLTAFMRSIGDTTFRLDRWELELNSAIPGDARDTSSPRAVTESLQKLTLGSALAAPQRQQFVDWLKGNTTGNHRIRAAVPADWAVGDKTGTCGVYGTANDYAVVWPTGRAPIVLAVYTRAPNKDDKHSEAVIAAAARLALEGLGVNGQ

SMILES: O=C(Cc1cccs1)N[C@@H]1C(=O)N2C(C(=O)O)=C(/C=C/c3ccc([N+](=O)[O-])cc3[N+](=O)[O-])CS[C@H]12 [nitrocefin]
- Km (read-out: Km(µM) B2, with antibody B2): 121 µM
- Km (read-out: Km(µM) B5, with antibody B5): 2.19 µM
- Km (read-out: Km(µM) Control without antibody, control without antibody (controls of the B2 and B5 runs)): 1.36 µM
